# In ChEMBL document CHEMBL1154899, “Synthesis and biological evaluation of caffeic acid 3,4-dihydroxyphenethyl ester” (J Nat Prod, 2010):
# Assays:
# Assay type in all cases: functional
# [1] = system: NCI-H23; assay: Antiproliferative activity against human NCI-H23 cells assessed as cell growth at 50 uM by SRB assay; conditions: read-out: Activity
# [2] = system: HCC 2998; assay: Antiproliferative activity against human HCC2998 cells assessed as cell growth at 5 uM by SRB assay; conditions: read-out: Activity
# [3] = system: HCT-15; assay: Antiproliferative activity against human HCT15 cells assessed as cell growth at 5 uM by SRB assay; conditions: read-out: Activity
# [4] = system: SK-MEL-28; assay: Antiproliferative activity against human SK-MEL-28 cells assessed as cell growth at 5 uM by SRB assay; conditions: read-out: Activity
# [5] = system: NCI/ADR-RES; assay: Antiproliferative activity against human NCI/ADR-RES cells assessed as cell growth at 5 uM by SRB assay; conditions: read-out: Activity
# [6] = system: SN12C; assay: Antiproliferative activity against human SN12C cells assessed as cell growth at 50 uM by SRB assay; conditions: read-out: Activity
# [7] = system: MCF7; assay: Antiproliferative activity against human MCF7 cells assessed as cell growth at 50 uM by SRB assay; conditions: read-out: Activity
# [8] = system: RXF 393; assay: Antiproliferative activity against human RXF393 cells assessed as cell growth at 500 uM by SRB assay; conditions: read-out: Activity
# [9] = system: T47D; assay: Antiproliferative activity against human T47D cells assessed as cell growth at 500 uM by SRB assay; conditions: read-out: Activity
# [10] = Antiproliferative activity against human Hs 578T cells assessed as cell growth at 5 uM by SRB assay; conditions: read-out: Activity
# [11] = system: UACC-257; assay: Antiproliferative activity against human UACC257 cells assessed as cell growth at 5 mM by SRB assay; conditions: read-out: Activity
# [12] = system: CCRF-CEM; assay: Antiproliferative activity against human CCRF-CEM cells assessed as cell growth at 500 uM by SRB assay; conditions: read-out: Activity
# [13] = system: K562; assay: Antiproliferative activity against human K562 cells assessed as cell growth at 500 uM by SRB assay; conditions: read-out: Activity
# [14] = system: NCI-H226; assay: Antiproliferative activity against human NCI-H226 cells assessed as cell growth at 500 uM by SRB assay; conditions: read-out: Activity
# [15] = system: COLO 205; assay: Antiproliferative activity against human COLO205 cells assessed as cell growth at 500 uM by SRB assay; conditions: read-out: Activity
# [16] = system: HCC 2998; assay: Antiproliferative activity against human HCC2998 cells assessed as cell growth at 500 uM by SRB assay; conditions: read-out: Activity
# [17] = system: HT-29; assay: Antiproliferative activity against human HT-29 cells assessed as cell growth at 500 uM by SRB assay; conditions: read-out: Activity
# [18] = system: SF-295; assay: Antiproliferative activity against human SF295 cells assessed as cell growth at 500 uM by SRB assay; conditions: read-out: Activity
# [19] = system: U-251; assay: Antiproliferative activity against human U251 cells assessed as cell growth at 500 uM by SRB assay; conditions: read-out: Activity
# [20] = system: SK-MEL-28; assay: Antiproliferative activity against human SK-MEL-28 cells assessed as cell growth at 500 uM by SRB assay; conditions: read-out: Activity
# [21] = system: UACC-257; assay: Antiproliferative activity against human UACC257 cells assessed as cell growth at 500 uM by SRB assay; conditions: read-out: Activity
# [22] = system: OVCAR-4; assay: Antiproliferative activity against human OVCAR4 cells assessed as cell growth at 500 uM by SRB assay; conditions: read-out: Activity
# [23] = system: OVCAR-5; assay: Antiproliferative activity against human OVCAR5 cells at 5 mM by SRB assay
# [24] = system: OVCAR-5; assay: Antiproliferative activity against human OVCAR5 cells at 500 uM by SRB assay
# [25] = system: HOP-62; assay: Antiproliferative activity against human HOP62 cells by SRB assay
# [26] = system: NCI-H522; assay: Antiproliferative activity against human NCI-H522 cells by SRB assay
# [27] = system: HCT-15; assay: Antiproliferative activity against human HCT15 cells by SRB assay
# [28] = system: SF-539; assay: Antiproliferative activity against human SF539 cells by SRB assay
# [29] = system: SK-MEL-5; assay: Antiproliferative activity against human SK-MEL-5 cells by SRB assay
# [30] = system: MCF7; assay: Antiproliferative activity against human MCF7 cells by SRB assay
# [31] = system: MDA-MB-231; assay: Antiproliferative activity against human MDA-MB-231 cells by SRB assay
# [32] = system: CCRF-CEM; assay: Antiproliferative activity against human CCRF-CEM cells assessed as cell growth at 0.5 uM by SRB assay; conditions: read-out: Activity
# [33] = system: SK-MEL-28; assay: Antiproliferative activity against human SK-MEL-28 cells assessed as cell growth at 0.5 uM by SRB assay; conditions: read-out: Activity
# [34] = system: UACC-62; assay: Antiproliferative activity against human UACC62 cells assessed as cell growth at 0.5 uM by SRB assay; conditions: read-out: Activity
# [35] = system: OVCAR-8; assay: Antiproliferative activity against human OVCAR8 cells assessed as cell growth at 0.5 uM by SRB assay; conditions: read-out: Activity
# [36] = system: MDA-MB-231; assay: Antiproliferative activity against human MDA-MB-231 cells assessed as cell growth at 0.5 uM by SRB assay; conditions: read-out: Activity
# [37] = system: EKVX; assay: Antiproliferative activity against human EKVX cells assessed as cell growth at 0.5 uM by SRB assay; conditions: read-out: Activity
# [38] = system: HOP-62; assay: Antiproliferative activity against human HOP62 cells assessed as cell growth at 0.5 uM by SRB assay; conditions: read-out: Activity
# [39] = system: HOP-92; assay: Antiproliferative activity against human HOP92 cells assessed as cell growth at 0.5 uM by SRB assay; conditions: read-out: Activity
# [40] = system: NCI-H460; assay: Antiproliferative activity against human NCI-H460 cells assessed as cell growth at 0.5 uM by SRB assay; conditions: read-out: Activity
# [41] = system: SNB-75; assay: Antiproliferative activity against human SNB75 cells assessed as cell growth at 0.5 uM by SRB assay; conditions: read-out: Activity
# [42] = system: HOP-62; assay: Antiproliferative activity against human HOP62 cells assessed as cell growth at 5 uM by SRB assay; conditions: read-out: Activity
# [43] = read-out: LC50 (the source's name)
# [44] = read-out: pLC50 (the source's name) (converted)
smiles,measurement,setting,value
O=C(/C=C/c1ccc(O)c(O)c1)OCCc1ccc(O)c(O)c1,growth at 50 µM,[1],89%
same,growth at 5 µM,[2],107%
same,growth at 5 µM,[3],88%
same,growth at 5 µM,[4],89%
same,growth at 5 µM,[5],98%
same,growth at 50 µM,[6],81%
same,growth at 50 µM,[7],92%
same,growth at 500 µM,[8],89%
same,growth at 500 µM,[9],71%
same,growth at 5 µM,[10],80%
same,growth at 5000 µM,[11],18%
same,growth at 500 µM,[12],1%
same,growth at 500 µM,[13],9%
same,growth at 500 µM,[14],79%
same,growth at 500 µM,[15],84%
same,growth at 500 µM,[16],80%
same,growth at 500 µM,[17],99%
same,growth at 500 µM,[18],92%
same,growth at 500 µM,[19],65%
same,growth at 500 µM,[20],55%
same,growth at 500 µM,[21],83%
same,growth at 500 µM,[22],58%
same,Activity,[23],51%
same,Activity,[24],102%
same,GI50,[25]; read-out: GI50,29.1 µM
same,CC50,[25]; [43],> 50 µM
same,TGI,[25]; read-out: TGI,> 50 µM
same,GI50,[25]; read-out: pGI50 (converted),28.8 µM
same,CC50,[25]; [44],> 50.1 µM
same,TGI,[25]; read-out: pTGI,> 50.1 µM
same,GI50,[26]; read-out: GI50,1260 nM
same,CC50,[26]; [43],> 50 µM
same,TGI,[26]; read-out: TGI,8.61 µM
same,GI50,[26]; read-out: pGI50 (converted),1260 nM
same,CC50,[26]; [44],> 50.1 µM
same,TGI,[26]; read-out: pTGI (converted),8.91 µM
same,GI50,[27]; read-out: GI50,2250 nM
same,CC50,[27]; [43],> 50 µM
same,TGI,[27]; read-out: TGI,> 50 µM
same,GI50,[27]; read-out: pGI50 (converted),1410 nM
same,CC50,[27]; [44],> 50.1 µM
same,TGI,[27]; read-out: pTGI,> 50.1 µM
same,GI50,[28]; read-out: GI50,5.83 µM
same,CC50,[28]; [43],> 50 µM
same,TGI,[28]; read-out: TGI,24.2 µM
same,GI50,[28]; read-out: pGI50 (converted),5.89 µM
same,CC50,[28]; [44],> 50.1 µM
same,TGI,[28]; read-out: pTGI (converted),24 µM
same,GI50,[29]; read-out: GI50,8.12 µM
same,CC50,[29]; [43],> 50 µM
same,TGI,[29]; read-out: TGI,47.7 µM
same,GI50,[29]; read-out: pGI50 (converted),8.13 µM
same,CC50,[29]; [44],> 50.1 µM
same,TGI,[29]; read-out: pTGI (converted),47.9 µM
same,GI50,[30]; read-out: GI50,3.86 µM
same,CC50,[30]; [43],> 50 µM
same,TGI,[30]; read-out: TGI,> 50 µM
same,GI50,[30]; read-out: pGI50 (converted),3.89 µM
same,CC50,[30]; [44],> 50.1 µM
same,TGI,[30]; read-out: pTGI,> 50.1 µM
same,GI50,[31]; read-out: GI50,11.1 µM
same,CC50,[31]; [43],> 50 µM
same,TGI,[31]; read-out: TGI,> 50 µM
same,GI50,[31]; read-out: pGI50 (converted),10.5 µM
same,CC50,[31]; [44],> 50.1 µM
same,TGI,[31]; read-out: pTGI,> 50.1 µM
same,growth at 0.5 µM,[32],95%
same,growth at 0.5 µM,[33],97%
same,growth at 0.5 µM,[34],91%
same,growth at 0.5 µM,[35],78%
same,growth at 0.5 µM,[36],113%
same,growth at 0.5 µM,[37],88%
same,growth at 0.5 µM,[38],92%
same,growth at 0.5 µM,[39],70%
same,growth at 0.5 µM,[40],95%
same,growth at 0.5 µM,[41],81%
same,growth at 5 µM,[42],89%
